Test results from patent publication US20240368150A1 (Hoffmann-La Roche Inc., priority 2021, published 2024).
Like-named read-outs stand apart in the source and are kept apart here.

Columns and labels:
primary human T-cells [1] = test system: primary human T-cells
primary human T-cells [2] = experiment: Proliferation assay after 5 days (CellTiter-Glo, CD3 stimulation; PBS counter screen); type: cell-based; conditions: CD3 stimulation; for Emax / EC50: Homo sapiens, T-cell, 120 h; for Emax: read-out: Emax proliferation (% activation); for EC50: primary human T-cells, CellTiter-Glo after 5 days, EC50 of fitted sigmoidal curve, read-out: Tcell Proliferation CD3 EC50
In short: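 Read-out: CellTiter-Glo 2.0 luminescence (ATP ∝ cell number) at day 5 after compound addition. Compounds activating unstimulated cells or reducing viability flagged.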

[3] = 5 days, normalized to reference compound A1 as stimulator control = 100%, DMSO neutral control

| Compound | EC50 (primary human T-cells [1]) [µM] | Emax (primary human T-cells [2]; [3]) [%] | EC50 (primary human T-cells [2]) [µM] | Emax proliferation (% activation) (primary human T-cells [2]; [3]) |
| --- | --- | --- | --- | --- |
| CN(CCO)CC(C)(C)c1nnc(-c2cc3c(cc2F)S(=O)(=O)C[C@H](N)C(=O)N3Cc2ccc(Cl)cc2)o1 [Example 139, (3R)-3-amino-5-[(4-chlorophenyl)methyl]-8-fluoro-7-[5-[2-[2-hydroxyethyl(methyl)amino]-1,1-dimethyl-ethyl]-1,3,4-oxadiazol-2-yl]-1,1-dioxo-2,3-dihydro-1λ^6,5-benzothiazepin-4-one] | 4 | 102 | 3.4 | – |
| CN(C)CCC(C)(C)c1nnc(-c2cc3c(cc2F)S(=O)(=O)C[C@H](N)C(=O)N3Cc2ccc(Cl)cc2)o1 [Example 140, (3R)-3-amino-5-[(4-chlorophenyl)methyl]-7-[5-[3-(dimethylamino)-1,1-dimethyl-propyl]-1,3,4-oxadiazol-2-yl]-8-fluoro-1,1-dioxo-2,3-dihydro-1λ^6,5-benzothiazepin-4-one] | 3.88 | 70 | 5.35 | – |
| CC(C)(CN1CCCCC1)c1nnc(-c2cc3c(cc2F)S(=O)(=O)C[C@H](N)C(=O)N3Cc2ccc(Cl)cc2)o1 [Example 141, (3R)-3-amino-5-[(4-chlorophenyl)methyl]-7-[5-[1,1-dimethyl-2-(1-piperidyl)ethyl]-1,3,4-oxadiazol-2-yl]-8-fluoro-1,1-dioxo-2,3-dihydro-1λ^6,5-benzothiazepin-4-one] | 0.255 | 91 | 0.768 | – |
| CC(C)(CN1CCC(F)(F)CC1)c1nnc(-c2cc3c(cc2F)S(=O)(=O)C[C@H](N)C(=O)N3Cc2ccc(Cl)cc2)o1 [Example 142, (3R)-3-amino-5-[(4-chlorophenyl)methyl]-7-[5-[2-(4,4-difluoro-1-piperidyl)-1,1-dimethyl-ethyl]-1,3,4-oxadiazol-2-yl]-8-fluoro-1,1-dioxo-2,3-dihydro-1λ^6,5-benzothiazepin-4-one] | 0.224 | 66 | 0.138 | – |
| CN(C)CCCC(C)(C)c1nnc(-c2cc3c(cc2F)S(=O)(=O)C[C@H](N)C(=O)N3Cc2ccc(Cl)cc2)o1 [Example 143, (3R)-3-amino-5-[(4-chlorophenyl)methyl]-7-[5-[4-(dimethylamino)-1,1-dimethyl-butyl]-1,3,4-oxadiazol-2-yl]-8-fluoro-1,1-dioxo-2,3-dihydro-1λ^6,5-benzothiazepin-4-one] | 1.27 | 77 | 2.39 | – |
| CN(C)CC(C)(C)c1nnc(-c2cc3c(cc2F)S(=O)(=O)C[C@H](N)C(=O)N3Cc2ccc(Cl)cc2)o1 [Example 146, (3R)-3-amino-5-[(4-chlorophenyl)methyl]-7-[5-[2-(dimethylamino)-1,1-dimethyl-ethyl]-1,3,4-oxadiazol-2-yl]-8-fluoro-1,1-dioxo-2,3-dihydro-1λ^6,5-benzothiazepin-4-one] | 0.26 | 90 | 0.189 | – |
| CC(C)(CN1CCOCC1)c1nnc(-c2cc3c(cc2F)S(=O)(=O)C[C@H](N)C(=O)N3Cc2ccc(Cl)cc2)o1 [Example 147, (3R)-3-amino-5-[(4-chlorophenyl)methyl]-7-[5-(1,1-dimethyl-2-morpholino-ethyl)-1,3,4-oxadiazol-2-yl]-8-fluoro-1,1-dioxo-2,3-dihydro-1λ^6,5-benzothiazepin-4-one] | 0.348 | 117 | 0.343 | – |
| CN1CCN(CC(C)(C)c2nnc(-c3cc4c(cc3F)S(=O)(=O)C[C@H](N)C(=O)N4Cc3ccc(Cl)cc3)o2)CC1 [Example 148, (3R)-3-amino-5-[(4-chlorophenyl)methyl]-7-[5-[1,1-dimethyl-2-(4-methylpiperazin-1-yl)ethyl]-1,3,4-oxadiazol-2-yl]-8-fluoro-1,1-dioxo-2,3-dihydro-1λ^6,5-benzothiazepin-4-one] | 0.988 | 48 | > 10 | – |
| CC(C)(CCCN)c1nnc(-c2cc3c(cc2F)S(=O)(=O)C[C@H](N)C(=O)N3Cc2ccc(Cl)cc2)o1 [Example 149, (3R)-3-amino-7-[5-(4-amino-1,1-dimethyl-butyl)-1,3,4-oxadiazol-2-yl]-5-[(4-chlorophenyl)methyl]-8-fluoro-1,1-dioxo-2,3-dihydro-1λ^6,5-benzothiazepin-4-one] | 4.23 | 57 | 2.56 | – |
| CCN1CC(c2nnc(-c3cc4c(cc3F)S(=O)(=O)C[C@H](N)C(=O)N4Cc3ccc(Cl)cc3)o2)CC(F)(F)C1 (stereo partly drawn) [Example 150, (3R)-3-amino-5-[(4-chlorophenyl)methyl]-7-[5-(1-ethyl-5,5-difluoro-3-piperidyl)-1,3,4-oxadiazol-2-yl]-8-fluoro-1,1-dioxo-2,3-dihydro-1λ^6,5-benzothiazepin-4-one] | 0.358 | 128 | 0.0757 | – |
| COCCN1CC(c2nnc(-c3cc4c(cc3F)S(=O)(=O)C[C@H](N)C(=O)N4Cc3ccc(Cl)cc3)o2)CC(F)(F)C1 (stereo partly drawn) [Example 151, (3R)-3-amino-5-[(4-chlorophenyl)methyl]-7-[5-[5,5-difluoro-1-(2-methoxyethyl)-3-piperidyl]-1,3,4-oxadiazol-2-yl]-8-fluoro-1,1-dioxo-2,3-dihydro-1λ^6,5-benzothiazepin-4-one] | 0.0934 | 112 | 0.0459 | – |
| CC(C)(CNC1COC1)c1nnc(-c2cc3c(cc2F)S(=O)(=O)C[C@H](N)C(=O)N3Cc2ccc(Cl)cc2)o1 [Example 156, (3R)-3-amino-5-[(4-chlorophenyl)methyl]-7-[5-[1,1-dimethyl-2-(oxetan-3-ylamino)ethyl]-1,3,4-oxadiazol-2-yl]-8-fluoro-1,1-dioxo-2,3-dihydro-1lambda6,5-benzothiazepin-4-one] | 3.34 | 135 | 8.13 | – |
| CN1CCC(F)(F)C(c2nnc(-c3cc4c(cc3F)S(=O)(=O)C[C@H](N)C(=O)N4Cc3ccc(Cl)cc3)o2)C1 (stereo partly drawn) [Example 158, (3R)-3-amino-5-[(4-chlorophenyl)methyl]-7-[5-(4,4-difluoro-1-methyl-3-piperidyl)-1,3,4-oxadiazol-2-yl]-8-fluoro-1,1-dioxo-2,3-dihydro-1λ^6,5-benzothiazepin-4-one] | 0.194 | 141 | 2.42 | – |
| N[C@H]1CS(=O)(=O)c2cc(F)c(-c3nnc(C4CN(C5CC5)CC(F)(F)C4)o3)cc2N(Cc2ccc(Cl)cc2)C1=O (stereo partly drawn) [Example 159, (3R)-3-amino-5-[(4-chlorophenyl)methyl]-7-[5-(1-cyclopropyl-5,5-difluoro-3-piperidyl)-1,3,4-oxadiazol-2-yl]-8-fluoro-1,1-dioxo-2,3-dihydro-1λ^6,5-benzothiazepin-4-one] | 0.218 | 121 | 0.184 | – |

More lines, in order of falling EC50 (primary human T-cells [1]), values ahead:

| EC50 (primary human T-cells [1]) [µM] | Compound | Emax (primary human T-cells [2]; [3]) [%] | EC50 (primary human T-cells [2]) [µM] | Emax proliferation (% activation) (primary human T-cells [2]; [3]) |
| --- | --- | --- | --- | --- |
| 2.1 | CC(C)(CNC1CCOC1)c1nnc(-c2cc3c(cc2F)S(=O)(=O)C[C@H](N)C(=O)N3Cc2ccc(Cl)cc2)o1 (stereo partly drawn) [Example 157, (3R)-3-amino-5-[(4-chlorophenyl)methyl]-7-[5-[1,1-dimethyl-2-(tetrahydrofuran-3-ylamino)ethyl]-1,3,4-oxadiazol-2-yl]-8-fluoro-1,1-dioxo-2,3-dihydro-1λ^6,5-benzothiazepin-4-one] | 106 | 1.01 | – |
| 1.82 | CN1CCC(c2nnc(-c3cc4c(cc3F)S(=O)(=O)C[C@H](N)C(=O)N4Cc3ccc(Cl)cc3)o2)C1 (stereo partly drawn) [Example 144, (3R)-3-amino-5-[(4-chlorophenyl)methyl]-8-fluoro-7-[5-(1-methylpyrrolidin-3-yl)-1,3,4-oxadiazol-2-yl]-1,1-dioxo-2,3-dihydro-1λ^6,5-benzothiazepin-4-one] | 106 | 6.15 | – |
| 0.89 | CN1CCCC(c2nnc(-c3cc4c(cc3F)S(=O)(=O)C[C@H](N)C(=O)N4Cc3ccc(Cl)cc3)o2)C1 (stereo partly drawn) [Example 154, (3R)-3-amino-5-[(4-chlorophenyl)methyl]-8-fluoro-7-[5-(1-methyl-3-piperidyl)-1,3,4-oxadiazol-2-yl]-1,1-dioxo-2,3-dihydro-1λ^6,5-benzothiazepin-4-one] | 86 | 1.72 | – |
| 0.778 | CN1CC(C)(c2nnc(-c3cc4c(cc3F)S(=O)(=O)C[C@H](N)C(=O)N4Cc3ccc(Cl)cc3)o2)C1 [Example 155, (3R)-3-amino-5-[(4-chlorophenyl)methyl]-7-[5-(1,3-dimethylazetidin-3-yl)-1,3,4-oxadiazol-2-yl]-8-fluoro-1,1-dioxo-2,3-dihydro-1λ^6,5-benzothiazepin-4-one] | 72 | 4.18 | – |
| 0.477 | N[C@H]1CS(=O)(=O)c2cc(F)c(-c3nnc(C4CN(CCO)CC(F)(F)C4)o3)cc2N(Cc2ccc(Cl)cc2)C1=O (stereo partly drawn) [Example 152, (3R)-3-amino-5-[(4-chlorophenyl)methyl]-7-[5-[5,5-difluoro-1-(2-hydroxyethyl)-3-piperidyl]-1,3,4-oxadiazol-2-yl]-8-fluoro-1,1-dioxo-2,3-dihydro-1λ^6,5-benzothiazepin-4-one] | 78 | 0.549 | – |
| 0.404 | CN1CCCC(C)(c2nnc(-c3cc4c(cc3F)S(=O)(=O)C[C@H](N)C(=O)N4Cc3ccc(Cl)cc3)o2)C1 (stereo partly drawn) [Example 145, (3R)-3-amino-5-[(4-chlorophenyl)methyl]-7-[5-(1,3-dimethyl-3-piperidyl)-1,3,4-oxadiazol-2-yl]-8-fluoro-1,1-dioxo-2,3-dihydro-1λ^6,5-benzothiazepin-4-one] | 107 | 0.428 | – |
| 0.246 | CN1CC(c2nnc(-c3cc4c(cc3F)S(=O)(=O)C[C@H](N)C(=O)N4Cc3ccc(Cl)cc3)o2)CC(F)(F)C1 (stereo partly drawn) [Example 153, (3R)-3-amino-5-[(4-chlorophenyl)methyl]-7-[5-(5,5-difluoro-1-methyl-3-piperidyl)-1,3,4-oxadiazol-2-yl]-8-fluoro-1,1-dioxo-2,3-dihydro-1λ^6,5-benzothiazepin-4-one] | – | 0.112 | 150 |
